Assay results taken from US10738028B2, “Spiro three-membered ring, spiro five-membered ring peptide deformylase inhibitor and use thereof in antibacteria and anti-tumor” (priority 2016, dated 2020).
≈ marks a conversion by molar mass, not a printed value. Like-named read-outs stand apart in the source and are kept apart here.

Legend:
Assay type in all cases: cell-based
[1] = system: Enterococcus faecalis (EFA); assay: MIC, two-fold agar dilution (CLSI), clinical isolates
Procedure, shortened: (§1)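 Test samples were assayed by the CLSI-recommended two-fold agar dilution method, and the minimum inhibitory concentration against each tested strain was determined.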

[2] = system: Enterococcus faecium (EFM); assay: as above
Procedure, shortened: as §1

[3] = system: Escherichia coli (including ESBLs, non-ESBLs); assay: as above
Procedure, shortened: as §1

[4] = system: Moraxella catarrhalis (BCA); assay: as above; conditions: for MIC: Moraxella catarrhalis
Procedure, shortened: as §1

[5] = system: Streptococcus pneoumoniae (SPN); assay: as above
Procedure, shortened: as §1

[6] = system: methicillin-resistant Staphylococcus aureus (MRSA); assay: as above
Procedure, shortened: as §1

[7] = system: methicillin-resistant Staphylococcus epidermidis (MRSE); assay: as above
Procedure, shortened: as §1

[8] = system: methicillin-sensitive Staphylococcus aureus (MSSA); assay: as above
Procedure, shortened: as §1

[9] = system: methicillin-sensitive Staphylococcus epidermidis (MSSE); assay: as above
Procedure, shortened: as §1

[10] = system: HCT-116 colorectal cancer cell line; assay: CCK-8 proliferation inhibition; conditions: Homo sapiens, HCT-116, 72 h, concentration of 30 μM, 72 hours, CCK-8
Procedure, shortened: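 Viability read-out: 1:10 diluted CCK-8 after 72 h compound exposure at 37 °C, 5% CO2. Cells (2000/well, McCoy's 5A plus 10% newborn bovine serum) pre-cultured overnight; vehicle control 1‰ DMSO.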

[11] = system: A549 lung cancer cell line; assay: CCK-8 proliferation inhibition; conditions: Homo sapiens, A549, 72 h, concentration of 30 μM
Procedure, shortened: (§2)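 Plating at 2000 cells/well, then incubation overnight at 37° C. Next, a range of compound concentrations for 72 hours (control 1‰ DMSO). Finally, medium decanted and CCK-8 diluted 1:10 added.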

[12] = system: BEL-7402 liver cancer cell line; assay: CCK-8 proliferation inhibition; conditions: concentration of 30 μM
Procedure, shortened: as §2

[13] = system: MGC-803 gastric cancer cell line; assay: CCK-8 proliferation inhibition; conditions: Homo sapiens, MGC-803, 72 h, concentration of 30 μM
Procedure, shortened: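 Growth inhibition measured by CCK-8 read-out after 72 h continuous compound treatment, 1‰ DMSO vehicle as control. Cells plated 2000/well the night before at 37 °C, 5% CO2; medium was 1640 for Jurkat and MGC-803, F12 for PC3, DMEM high glucose for MCF-7, each with 10% newborn bovine serum.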

[14] = MIC in vitro anti-bacterial experiments, Gram-positive bacteria; conditions: lowest MIC reached; read-out: minimum inhibitory concentration against Gram-positive bacteria
Description: 1. The invention adopts the two-fold agar dilution method recommended by the operating procedure of antimicrobial susceptibility testing set by American Clinical and Laboratory Standards Institute (CLSI) to determine the Minimum Inhibitory Concentration (MIC) of the test samples against the tested strains.

Cc1csc(NC(=O)[C@@H]2CC3(CC3)CN2C(=O)[C@H](CC2CCCC2)CN(O)C=O)n1 [Example 33]
MIC (anti-bacterial activity) ([1]; strain EFA 15-1): 1 mg/L (≈ 2.3 µM) | MIC (anti-bacterial activity) ([1]; strain EFA 15-2): 1 mg/L (≈ 2.3 µM) | MIC (anti-bacterial activity) ([1]; strain EFA 15-3): 1 mg/L (≈ 2.3 µM) | MIC (anti-bacterial activity) ([1]; strain EFA 15-4): 1 mg/L (≈ 2.3 µM) | MIC (anti-bacterial activity) ([1]; strain EFA 15-5): 1 mg/L (≈ 2.3 µM) | MIC (anti-bacterial activity) ([1]; strain EFA 15-6): 1 mg/L (≈ 2.3 µM) | MIC (anti-bacterial activity) ([1]; strain EFA 15-9): 1 mg/L (≈ 2.3 µM) | MIC (anti-bacterial activity) ([2]; strain EFM 15-1): 0.5 mg/L (≈ 1.15 µM) | MIC (anti-bacterial activity) ([2]; strain EFM 15-2): 0.5 mg/L (≈ 1.15 µM) | MIC (anti-bacterial activity) ([2]; strain EFM 15-3): 0.125 mg/L (≈ 0.288 µM) | MIC (anti-bacterial activity) ([2]; strain EFM 15-4): 0.5 mg/L (≈ 1.15 µM) | MIC (anti-bacterial activity) ([2]; strain EFM 15-5): 0.5 mg/L (≈ 1.15 µM) | MIC (anti-bacterial activity) ([2]; strain EFM 15-6): 0.5 mg/L (≈ 1.15 µM) | MIC (anti-bacterial activity) ([3]; strain ECO+ 15-1): > 32 mg/L | MIC (anti-bacterial activity) ([3]; strain ECO+ 15-2): > 32 mg/L | MIC (anti-bacterial activity) ([3]; strain ECO+ 15-3): > 32 mg/L | MIC (anti-bacterial activity) ([3]; strain ECO+ 15-4): > 32 mg/L | MIC (anti-bacterial activity) ([3]; strain ECO− 15-1): > 32 mg/L | MIC (anti-bacterial activity) ([3]; strain ECO− 15-2): > 32 mg/L | MIC (anti-bacterial activity) ([3]; strain ECO− 15-3): > 32 mg/L | MIC (anti-bacterial activity) ([3]; strain ECO− 15-4): > 32 mg/L | MIC ([4]; 7 clinical isolates, range over strains, read-out: Moraxella catarrhalis (n = 7) MIC): 0.06 to 0.25 mg/L (≈ 0.138 to 0.575 µM) | MIC ([4]; lowest MIC reached, read-out: minimum inhibitory concentration against Moraxella catarrhalis, as low as): ≥ 0.06 mg/L | Anti-bacterial activity (MIC), strain BCA 14-10 ([4]; clinical isolate BCA 14-10): 0.06 mg/L | MIC (anti-bacterial activity) ([4]; strain BCA 14-1): 0.25 mg/L (≈ 0.575 µM) | MIC (anti-bacterial activity) ([4]; strain BCA 14-4): 0.25 mg/L (≈ 0.575 µM) | MIC (anti-bacterial activity) ([4]; strain BCA 14-5): 0.06 mg/L (≈ 0.138 µM) | MIC (anti-bacterial activity) ([4]; strain BCA 14-6): 0.06 mg/L (≈ 0.138 µM) | MIC (anti-bacterial activity) ([4]; strain BCA 14-7): 0.03 mg/L (≈ 0.069 µM) | MIC (anti-bacterial activity) ([4]; strain BCA 14-8): 0.125 mg/L (≈ 0.288 µM) | MIC (anti-bacterial activity) ([5]; strain SPN 16-2): 0.06 mg/L (≈ 0.138 µM) | MIC (anti-bacterial activity) ([5]; strain SPN 16-4): 1 mg/L (≈ 2.3 µM) | MIC (anti-bacterial activity) ([6]; strain MRSA 15-1): 0.03 mg/L (≈ 0.069 µM) | MIC (anti-bacterial activity) ([6]; strain MRSA 15-2): 0.06 mg/L (≈ 0.138 µM) | MIC (anti-bacterial activity) ([6]; strain MRSA 15-3): < 0.008 mg/L | MIC (anti-bacterial activity) ([6]; strain MRSA 15-4): 0.06 mg/L (≈ 0.138 µM) | MIC (anti-bacterial activity) ([7]; strain MRSE 15-1): 0.015 mg/L (≈ 0.0345 µM) | MIC (anti-bacterial activity) ([7]; strain MRSE 15-2): 0.125 mg/L (≈ 0.288 µM) | MIC (anti-bacterial activity) ([7]; strain MRSE 15-3): 0.125 mg/L (≈ 0.288 µM) | MIC (anti-bacterial activity) ([7]; strain MRSE 15-7): 0.125 mg/L (≈ 0.288 µM) | MIC (anti-bacterial activity) ([8]; strain MSSA 15-3): 0.06 mg/L (≈ 0.138 µM) | MIC (anti-bacterial activity) ([8]; strain MSSA 15-4): 0.03 mg/L (≈ 0.069 µM) | MIC (anti-bacterial activity) ([8]; strain MSSA 15-5): 0.03 mg/L (≈ 0.069 µM) | MIC (anti-bacterial activity) ([8]; strain MSSA 15-6): 0.06 mg/L (≈ 0.138 µM) | MIC (anti-bacterial activity) ([9]; strain MSSE 15-3): 0.125 mg/L (≈ 0.288 µM) | MIC (anti-bacterial activity) ([9]; strain MSSE 15-4): 0.125 mg/L (≈ 0.288 µM) | MIC (anti-bacterial activity) ([9]; strain MSSE 15-5): 0.125 mg/L (≈ 0.288 µM) | MIC (anti-bacterial activity) ([9]; strain MSSE 15-6): 0.03 mg/L (≈ 0.069 µM) | inhibition at 30 µM ([10]; Table 5, read-out: Inhibition of proliferation, Colorectal cancer HCT116): ≥ 30% | inhibition at 30 µM ([10]; read-out: HCT116 inhibition rate/%): 31% | inhibition at 30 µM [11]: 20% | inhibition at 30 µM ([12]; Homo sapiens, Bel-7402, 72 h): > 50% | Inhibition of proliferation, Liver cancer BEL-7402 ([12]; 72 hours, 30 µM): 57% | inhibition at 30 µM [13]: 27% | MIC [14]: < 0.008 mg/L
